The assay has as its target Bcl-2-like protein 1 (Homo sapiens) (UniProt Q07817). Put plainly: Bcl-XL binding to Bim peptide disruption – biochemical, multiplexed, bead flow cytometry, human Bcl-XL, dose response (AID 1322). For inhibition: test concentration not given here. The settings on record: Bead-based flow cytometry, MCF; for inhibition: stronger effect = higher value. A general note: In flow cytometry, cells or beads pass a laser one at a time.

Activity calls are given as the source filed them. The rule behind the calls is not given here.

Sequence of Bcl-2-like protein 1 (Homo sapiens) (Q07817 whole entry, looked up): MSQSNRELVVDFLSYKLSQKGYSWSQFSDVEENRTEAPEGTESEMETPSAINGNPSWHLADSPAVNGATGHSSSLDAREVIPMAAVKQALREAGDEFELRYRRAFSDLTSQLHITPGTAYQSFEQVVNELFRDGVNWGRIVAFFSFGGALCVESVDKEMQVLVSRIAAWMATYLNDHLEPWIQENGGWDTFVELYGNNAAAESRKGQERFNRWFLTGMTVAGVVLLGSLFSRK

Consider `Clc1ccc2c(N/N=C/c3cccc(Br)c3)ccnc2c1`, for which the inhibition entry was “inactive”. Turning to `OCCC1CN(Cc2ccc3ncccc3c2)CCN1Cc1ccccc1` (configuration not stated), the outcome was inactive.

`O=C(CCCN1C(=O)c2cccc3cccc(c23)C1=O)N1CCN(c2ccccn2)CC1`: the outcome was inactive. With `S=C(Nc1ccc(N2CCOCC2)cc1)Nc1ccc2nc(-c3ccco3)c(-c3ccco3)nc2c1`, the inhibition result was “inactive”. On to `O=C(N/N=C/c1ccncc1)c1cccc(NC(=O)c2ccccc2Cl)c1`, for which the inhibition result was “inactive”.

As for `O=c1[nH]c(SCc2nc3ccccc3c(=O)n2-c2ccccc2C(F)(F)F)nc2ccccc12`, the inhibition entry was “inactive”.

Regarding `COc1ccc(NC(=O)/C(C#N)=C/c2c(C)nn(-c3ccc(F)cc3)c2Cl)cc1Cl`, the inhibition result is “inactive”. The same measure, in the same setting: the value for `CC1(C)Cc2c(ccc3ccccc23)/C(=C/C(=O)N2CCCCC2)N1` was “inactive”. Turning to `COc1ccc(N2C(=O)C(Cl)=C(Oc3cccc(OC)c3)C2=O)cc1`, the inhibition result was “inactive”. Take `CCOC(=O)c1sc(NC(=O)c2ccncc2)c(C#N)c1C`: the inhibition entry was “inactive”. On to `O=C(O)c1ccccc1NSc1ccccc1[N+](=O)[O-]`, for which the result was inactive. Regarding `CCOC(=O)c1sc(N)c(C(=O)Nc2ccccc2OC)c1C`, the inhibition entry was “inactive”. For the compound `Clc1nc2ccccc2cc1/C=N/Nc1nc2ccccc2[nH]1`, the EC50 entry was “inactive”. Turning to `CN(C)c1ncc(C2=C(Cl)C(=O)C(N3CCCC3)=C(Cl)C2=O)s1`, the inhibition result is “inactive”.

Regarding `CCOc1ccccc1NC(=O)CSc1ccc2nnc(-c3cccnc3)n2n1`, the inhibition result was “inactive”. Take `CC(C)CCN1CCN(Cc2cccc3cccnc23)CC1CCO` (configuration not stated): the outcome was inactive.

As to `CS(=O)(=O)NN1C(=O)c2ccccc2NC1c1cccc2cccnc12` (configuration not stated), the inhibition result was “inactive”. Consider `Cc1ccc(/C=C2/NC(=O)N(Cc3ccccc3)C2=O)o1`, for which the result was inactive. `CCNC(=O)N1c2ccc(OCC)cc2C(C)=CC1(C)C`: the inhibition result was “inactive”. Take `Cc1cccc(-c2nnc3n2N=C(c2ccccc2)CS3)c1`: the inhibition entry is “inactive”.

With `O=C(Nc1nccs1)c1ccc(COc2ccc(F)cc2)o1`, the inhibition entry is “inactive”. With `O=C(COC(=O)CCCN=C1NS(=O)(=O)c2ccccc21)NC(=O)NC1CCCC1`, the inhibition result was “inactive”. For `Cc1ccc(C(=O)C(C(=O)/C=C/c2ccccc2)=C2SCCCS2)cc1`, the inhibition result is “inactive”. The same measure, in the same setting: the value for `CNC(=O)c1c(N)sc2c1CCCCC2` was “inactive”. As for `CCOc1ccccc1CNc1ccc(O)cc1`, the result was inactive. Take `S=C(Nc1ccccc1)N1CCn2cccc2C1c1cccnc1` (configuration not stated): the inhibition entry is “inactive”. The same measure, in the same setting: in the case of `O=C(/C=C/c1ccc(-c2ccccc2[N+](=O)[O-])o1)c1ccc(F)cc1` it was “inactive”; in that of `CC(C)(C)NC(=O)COc1ccc(CNc2ccc3[nH]c(=O)[nH]c3c2)cc1`, “inactive”. `CC1Nc2ccccc2C(=O)N1NS(C)(=O)=O` (configuration not stated): the inhibition entry is “inactive”. For `NC(=O)c1c(NC(=O)C2CCCO2)sc2c1CCCCC2` (configuration not stated), the inhibition entry is “inactive”. Turning to `CN1CCN(c2ccccc2N)CC1`, the inhibition entry was “inactive”. Regarding `COc1ccccc1OCc1ccc(C(=O)Nc2ccccc2F)cc1`, the inhibition result was “inactive”.

On to `CCN(CC)c1ccc(NC(=O)c2ccccc2F)cc1S(=O)(=O)Nc1ccccc1OC`, for which the inhibition result is “inactive”.

Take `CCN(CC)c1ccc(Nc2nc(N3CCOCC3)c3ccccc3n2)cc1`: the inhibition result is “inactive”. Take `COc1ccc(CCNC(=O)c2cc(-c3ccccn3)nc3c(Cl)cccc23)cc1OC`: the inhibition entry was “inactive”.

For `O=C(C1CCC(Cn2c(=S)[nH]c3ccccc3c2=O)CC1)N1CCN(c2ccccn2)CC1` (configuration not stated), the outcome was inactive. For `CCN1/C(=C/c2ccc3cc(C)cc(C)c3[n+]2CC)Sc2cc(C)ccc21`, the inhibition result is “inactive”.

Source of the values: PubChem BioAssay AID1322 (NMMLSC, 2008).
